Test results: patent US10232023B2, “Methods for treatment of and prophylaxis against inflammatory disorders” (THE UNIVERSITY OF UTAH RESEARCH FOUNDATION, priority 2013, dated 2019)

Tests used:
PMA-stimulated PMNs = assay: Nuclear decondensation (nuclear area) assay; format: cell-based, human; conditions: CRISPP 1 nM, SCR 1 nM, Sivelestat 200 nM; PMA 20 nM, 2 hours; vs PMA alone
Experimental: Using techniques modified from Papayannopoulos et al., J Cell Biol, 2010, 191: 677-691, nuclear area assays were used for PMA-stimulated PMNs as a surrogate for NET formation. PMNs were stimulated with PMA (20 nM) for 2 hours and then visualized via live cell imaging with a cell permeable DNA dye. Images from 5 randomly selected high power fields were captured and the nuclear area of all PMNs on each visual field was quantitated using IMAGEJ software. Nuclear areas were compared for PMNs stimulated with PMA with PMNs pre-incubated with CRISPP (1 nM), SCR (1 nM), or the NE inhibitor Sivelestat (200 nM). […] Next, immunocytochemical experiments designed to see whether CRISPP is taken up by human PMNs were performed. The CRISPP-F and SCR-F peptides and FLAG-tag specific primary antibodies were used to assess cellular location. […] CRISPP can inhibit nuclear chromatin decondensation, which is consistent with the selective inhibition of NET formation by CRISPP and nNIF. This process may involve inhibition of NE activity.
PMNs were isolated and resuspended to 2×10^6 cells/mL in M-199 media. […] 5 randomly selected high power visual fields per sample were captured via confocal microscopy and analyzed for nuclear area using the cell-permeable, fluorescent DNA dye SYTO Green. The nuclear pixel areas of >100 individual cells per high power field were determined using IMAGE-J software (NIH).

NET formation = NET formation inhibition (test not described); conditions: no test described
LPS-stimulated PMNs = assay: NET formation by LPS-stimulated adult human PMNs (live cell imaging, histone H3 release); format: cell-based; conditions: LPS 100 ng/mL; for NET formation by LPS-stimulated PMNs: healthy adult PMNs, peptide/protein pre-incubation 1 hour (1 nM where stated)
[1] = tested on: human PMNs stimulated with phorbol 12-myristate acetate (PMA); conditions: background statement; cited from earlier work
[2] = tested on: PMA-stimulated adult PMNs; assay: NET formation by PMA-stimulated adult human PMNs; format: cell-based; conditions: pre-incubation 1 nM, 1 hour; PMA 20 nM
[3] = tested on: Outbred Swiss-Webster mice, E. coli peritonitis; assay: Murine E. coli peritonitis: peritoneal fluid and membrane analysis; format: in vivo, mouse
Experimental: Outbred Swiss-Webster mice were injected intraperitoneally with 4.5×10^7 colony-forming units (cfu) of E. coli±nNIF, CRISPP, or scrambled control peptide (SCR) (10 mg/kg, IP injection) one hour prior to E. coli infection. At the 3 hour time point after infection, 3 mice were sacrificed and the peritoneal fluid and peritoneal tissue were collected and analyzed for leukocyte accumulation, bacteriology, and in vivo NET formation. […] See Fuchs et al., J Cell Biol, 2007, 176: 231-241. The number of E. coli cfu/mL of peritoneal fluid in CRISPP pretreated mice was also determined compared to SCR mice (see FIG. 17C).
Animals were treated with CRISPP (10 mg/kg), nNIF (10 mg/kg), or SCR (10 mg/kg) by i.p. injection 1 hour prior to infection (E. coli, 4.5×10^7 cfu/mouse, i.p. injection) or stimulation (LPS, 25 mg/kg, i.p. injection (SIGMA)). Control mice were injected with saline alone. The mice were sacrificed in a CO2 chamber 3 hours post-infection/stimulation with the peritoneal contents harvested and analyzed. Briefly, the skin of the abdomen was cut open in the midline after thorough disinfection and without injuring the muscle. The peritoneal cavity was lavaged with sterile saline solution ([…]) and analyzed for in vivo NET formation, bacteriology, and leukocyte accumulation. NETs in the peritoneal fluid were qualitatively and quantitatively analyzed using live cell imaging with confocal microscopy and histone release assays. NETs on the inner surface of the peritoneal membrane were assessed quantitatively using live cell imaging followed by standardized grid analysis of 5 randomly selected high power visual fields per tissue sample (IMAGE-J software, NIH). Peritoneal bacterial colony forming units (cfu) counts were quantified by permeabilizing all recovered leukocytes with 0.1% Triton-X 100 for 10 minutes and performing serial dilutions and bacterial cultures on 5% sheep blood agar plates (HARDY DIAGNOSTICS). After a 24-hour incubation, bacterial counts were determined. Total leukocyte counts in the peritoneal lavage were determined in Neubauer chambers using an optical microscope after dilution in Turk's solution (2% acetic acid). Differential leukocyte analysis was performed using a 60× oil immersion objective to assess morphology of cyto-centrifuged cells stained with May-Grunwald-Giemsa dye.

[4] = tested on: PMNs isolated from healthy adult donors; assay: PMN chemotaxis, modified Boyden Chamber assay; format: cell-based, human; conditions: 1 nM, one hour pre-incubation; IL-8 2 ng/mL
Experimental: Chemotaxis by PMNs isolated from healthy adult donors was assessed using a modified Boyden Chamber assay±a one hour pre-incubation […] (1 nM), or SCR (1 nM). Recombinant human IL-8 (2 ng/mL) was used as the chemoattractant. Chemotaxis through a 5 micron filter was determined by counting PMNs in 10 randomly selected high-power fields as previously described in Hill et al., Lancet, 1974, 2: 617-619. In separate experiments, […], or SCR (all at 1 nM) were evaluated for chemoattractant activity using the same system.

[5] = tested on: PMNs isolated from healthy adult donors; assay: PMN phagocytosis of E. coli BIOPARTICLES; format: cell-based, human; conditions: 1 nM, 60 minutes pre-incubation, 4 hours
Experimental: PMNs were isolated from blood of healthy adult donors and resuspended in M-199 at a concentration of 2×10^6 cells/mL. Leukocytes were pre-incubated for 60 minutes under standard conditions with cytochalasin B and […] (1 nM), or SCR (1 nM). Following pre-incubation, PMNs were incubated with 6×10^6 E. coli BIOPARTICLES (E-13231, MOLECULAR PROBES) on a rotator for 4 hours under standard conditions. The PMNs were then washed and resuspended in the starting volume in M-199 before being spun down onto glass coverslips and fixed with 2% paraformaldehyde for 10 minutes and permeabilized with 0.1% Triton-X-100 for 10 minutes. Leukocytes were stained with WGA 555 (INVITROGEN) and TO[…] (MOLECULAR PROBES) and randomly selected high power visual field images were captured using confocal microscopy. IMAGE-J software (NIH) was used to determine the percentage of PMNs that were positive for fluorescently labeled E. coli BIOPARTICLES detected at 488 nm.

[6] = tested on: LPS-stimulated human PMNs; assay: Reactive oxygen species generation, dihydrorhodamine assay; format: cell-based; conditions: 1 nM, 1 hour pre-incubation; LPS 100 ng/mL
Experimental: Human PMNs isolated from healthy adult whole blood were resuspended to a concentration of 2×10^6 cells/mL in M-199 media and pre-incubated±[…] (1 nM) or SCR (1 nM) peptide for 1 hour under standard conditions. The PMNs were then stimulated with LPS (100 ng/mL) for 1 hour, washed, and resuspended with a dihydrorhodamine (7.25 mM; D-632, MOLECULAR PROBES) and catalase (1000 Units/mL; C-40, SIGMA) mixture and incubated at 37° C. for 10 minutes. After incubation, samples were placed at 4° C. and analyzed for ROS-dependent fluorescence using a BECTON-DICKINSON FACSCAN device equipped with CELLQUEST software.

[7] = 10 mg/kg IP pretreatment, vs SCR control

CC(C)(C)C(=O)Oc1ccc(S(=O)(=O)Nc2ccccc2C(=O)NCC(=O)O)cc1 [Sivelestat, reference compound]
Nuclear area of PMA-stimulated PMNs (PMA-stimulated PMNs): significant decrease in nuclear area

A1ATm^358: cleavage fragment of full length A1AT (SEQ ID NO:3), an nNIF-related peptide (PMSIPPEVKFNKPFVFLMIEQNTKSPLFMGKVVNPTQK; homo sapiens)
NET formation (NET formation): inhibit NET formation

alpha 1-antitrypsin [A1AT]
NET formation by LPS-stimulated PMNs (LPS-stimulated PMNs): failed to inhibit NET formation | NET formation by LPS-stimulated PMNs, recombinant AAT in nNIF-depleted cord blood plasma (LPS-stimulated PMNs; rAAT (1 nM) added to nNIF-depleted cord blood plasma, listed as recombinant full length A1AT): did not inhibit NET formation | NET formation in PMA-stimulated human PMNs [1]: does not inhibit NET formation

neonatal NET-Inhibitory Factor (KAVLTIDEKGTEAAGAMFLEAIPMSIPPEVKFNKPFVFLMIEQNTKSPLFMGKVVNPTQK; listed as Homo sapiens) [nNIF]
NET formation by LPS-stimulated PMNs (LPS-stimulated PMNs): significantly inhibited NET formation | NET formation by PMA-stimulated PMNs [2]: significantly inhibited NET formation | NET formation by histone H3 release assay of the peritoneal fluid [3, 7]: significant quantitative decrease | NET formation in the peritoneal fluid (live cell imaging) [3, 7]: qualitative decrease | Peritoneal membrane-associated NET formation ([3]; freshly resected peritoneal membrane, live cell imaging, standardized grid): qualitative and quantitative decrease | PMN chemotaxis [4]: did not significantly inhibit | PMN phagocytosis [5]: did not significantly inhibit | Reactive oxygen species generation [6]: did not significantly inhibit

B1: recombinant serpin B1: serine protease inhibitor expressed as a cytoplasmic protein by human PMNs (protein, UniProt P30740 1-379, looked up)
Leukocyte elastase inhibitor: MEQLSSANTRFALDLFLALSENNPAGNIFISPFSISSAMAMVFLGTRGNTAAQLSKTFHFNTVEEVHSRFQSLNADINKRGASYILKLANRLYGEKTYNFLPEFLVSTQKTYGADLASVDFQHASEDARKTINQWVKGQTEGKIPELLASGMVDNMTKLVLVNAIYFKGNWKDKFMKEATTNAPFRLNKKDRKTVKMMYQKKKFAYGYIEDLKCRVLELPYQGEELSMVILLPDDIEDESTGLKKIEEQLTLEKLHEWTKPENLDFIEVNVSLPRFKLEESYTLNSDLARLGVQDLFNSSKADLSGMSGARDIFISKIVHKSFVEVNEEGTEAAAATAGIATFCMLMPEENFTADHPFLFFIRHNSSGSILFLGRFSSP
NET formation in PMA-stimulated human PMNs [1]: inhibits NET formation
